Laboratory results as given in ChEMBL document CHEMBL3734699, “A new cerebroside from the fruiting bodies of Hericium erinaceus and its applicability to cancer treatment” (Bioorg Med Chem Lett, 2015).
The source made the active and inactive calls. The rule behind the calls is not given here.

Experiments:
[1] = system: HUVEC; assay: Antiangiogenesis activity in HUVEC assessed as inhibition of VEGF-induced tube formation at 25 uM; type: functional, cell-based; details: Homo sapiens
[2] = molecular target: Acetylcholinesterase (Homo sapiens) (UniProt P22303); assay: Inhibition of acetylcholine esterase (unknown origin) up to 200 uM by Ellman's colorimetric method
[3] = system: LLC-PK1; assay: Renoprotective activity in pig LLC-PK1 cells assessed as inhibition of cisplatin-induced nephrotoxicity at 100 to 200 uM preincubated for 2 hrs followed by cisplatin challenge measured after 24 hrs by MTT assay; type: functional, cell-based; details: Sus scrofa
[4] = system: HUVEC; assay: Cytotoxicity in HUVEC assessed as reduction in cell viability up to 50 uM; type: cell-based; details: human
[5] = Antioxidant activity of the compound assessed as DPPH radical scavenging activity by colorimetric method; type: physicochemical
[6] = system: HUVEC; assay: Antiangiogenesis activity in HUVEC assessed as inhibition of VEGF-induced tube formation at 50 uM; type: functional, cell-based; details: Homo sapiens

Acetylcholinesterase (Homo sapiens), sequence (P22303 whole entry): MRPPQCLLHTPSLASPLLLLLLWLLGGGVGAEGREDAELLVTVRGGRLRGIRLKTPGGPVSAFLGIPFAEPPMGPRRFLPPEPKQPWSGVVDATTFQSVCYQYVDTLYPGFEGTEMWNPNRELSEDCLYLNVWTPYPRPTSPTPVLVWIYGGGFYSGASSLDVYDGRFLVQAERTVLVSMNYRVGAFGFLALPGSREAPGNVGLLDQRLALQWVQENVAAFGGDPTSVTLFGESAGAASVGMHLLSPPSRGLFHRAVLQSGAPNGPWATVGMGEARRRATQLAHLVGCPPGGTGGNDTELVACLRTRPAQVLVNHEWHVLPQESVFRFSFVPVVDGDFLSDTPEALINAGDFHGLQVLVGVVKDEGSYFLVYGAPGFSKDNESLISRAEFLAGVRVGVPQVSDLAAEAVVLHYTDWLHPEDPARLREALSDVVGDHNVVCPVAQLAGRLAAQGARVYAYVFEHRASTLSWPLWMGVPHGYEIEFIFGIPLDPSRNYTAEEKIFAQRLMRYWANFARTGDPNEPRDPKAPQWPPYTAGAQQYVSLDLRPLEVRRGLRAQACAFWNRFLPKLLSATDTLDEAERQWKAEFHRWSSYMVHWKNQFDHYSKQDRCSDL

CC(C)=CCC[C@](C)(O[C@@H]1O[C@H](CO)[C@@H](O)[C@H](O)[C@H]1O)[C@H]1CC[C@]2(C)[C@@H]1[C@H](O)C[C@@H]1[C@@]3(C)CC[C@H](O)C(C)(C)[C@@H]3CC[C@]12C
Activity [1]: Active

CCCCCCCCCCCCCCCC[C@@H](O)C(=O)N[C@@H](CO[C@@H]1O[C@H](CO)[C@@H](O)[C@H](O)[C@H]1O)[C@H](O)/C=C/CC/C=C(\C)CCCCCC
inhibition [2]: inactive | Activity [3]: Active | Activity [4]: Non-toxic | Activity [5]: Not Active | Activity [6]: Active | Activity [1]: Active
